Test results: PubChem BioAssay (NCI)
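Results reflect a 48-hour exposure of cells in 96-well plates to compound at five concentrations. TGI is the concentration that stops growth completely.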

Assays:
Experiment in all cases: NCI tumour cell line growth inhibition, 48 h
[1] = system: ACHN renal
[2] = system: CAKI-1 renal
[3] = system: DU-145 prostate
[4] = system: HCT-15 colon
[5] = system: HOP-92 NSCLC
[6] = system: MALME-3M melanoma
[7] = system: MDA-MB-231 breast
[8] = system: NCI/ADR-RES ovarian
[9] = system: OVCAR-3 ovarian
[10] = system: OVCAR-4 ovarian
[11] = system: SK-MEL-5 melanoma
[12] = system: SNB-19 CNS
[13] = system: SW-620 colon
[14] = system: TK-10 renal
[15] = system: U251 CNS
[16] = system: UACC-62 melanoma
[17] = system: UO-31 renal
[18] = system: M14 melanoma
[19] = system: SR leukemia
[20] = system: MCF7 breast

Structure (SMILES) | TGI [1] | TGI [2] | TGI [3] | TGI [4] | TGI [5] | TGI [6] | TGI [7] | TGI [8] | TGI [9] | TGI [10] | TGI [11] | TGI [12] | TGI [13] | TGI [14] | TGI [15] | TGI [16] | TGI [17] | TGI [18] | TGI [19] | TGI [20]
O=c1oc2ccccc2c(O)c1C(c1ccc(-c2ccccc2)cc1)c1c(O)c2ccccc2oc1=O | 60.4 µM | 39.4 µM | > 100 µM | 40 µM | 48.5 µM | 65 µM | 48.8 µM | 58.6 µM | 58.7 µM | > 100 µM | 80.9 µM | > 100 µM | 33.2 µM | > 100 µM | > 100 µM | 39.5 µM | 31.6 µM |  |  | 
c1ccc(-c2c(-c3cccs3)[nH]c(-c3cccs3)c2-c2ccccn2)nc1 | > 100 µM | > 100 µM | > 100 µM | 40.4 µM | 55.4 µM | 77.1 µM | 48.7 µM | 64.8 µM | 58.3 µM |  | 26.6 µM | > 100 µM | 68.8 µM | > 100 µM | 48.7 µM | 35.6 µM | 57.3 µM | 40.7 µM | 81.1 µM | 
O=C1c2cccc(O)c2C(=O)c2c(O)cccc21 | > 100 µM | > 100 µM |  | > 100 µM | > 100 µM |  |  |  | > 100 µM | > 100 µM |  | > 100 µM | > 100 µM | > 100 µM | > 100 µM | 39.8 µM | > 100 µM | > 100 µM | > 100 µM | 
O=[N+]([O-])c1cc(N=Nc2c(O)ccc3cc(S(=O)(=O)O)ccc23)c(O)c([N+](=O)[O-])c1 | > 100 µM | > 100 µM | > 100 µM | > 100 µM | > 100 µM | > 100 µM | > 100 µM | > 100 µM | > 100 µM | > 100 µM | > 100 µM | > 100 µM | > 100 µM | > 100 µM | > 100 µM | > 100 µM | > 100 µM | > 100 µM |  | 
Nc1nc(N)c2ncn(CCOC(c3ccccc3)P(=O)(O)O)c2n1 (centres undefined) | > 100 µM | > 100 µM |  | > 100 µM |  | > 100 µM |  |  | > 100 µM |  | > 100 µM | > 100 µM | > 100 µM | > 100 µM | > 100 µM | > 100 µM | > 100 µM |  | > 100 µM | 
ClCC[N-]CC[N-]CCCl.ClCC[N-]CC[N-]CCCl.[O-][Cl+3]([O-])([O-])O.[Zn+2] | 49.6 µM | 39.7 µM |  | > 100 µM | > 57.3 µM | 37.4 µM |  |  | 32.1 µM | 41.8 µM | 56.1 µM | > 100 µM | 47.2 µM | > 71.1 µM | > 67.3 µM | 66.9 µM | > 72.5 µM | 38.5 µM | > 100 µM | 
C[n+]1c2ccccc2c(CNCC(=O)O)c2ccccc21 | 2.59 µM | 1.84 µM |  | 4.94 µM | 10.4 µM | 28.6 µM |  |  | 6.2 µM | 25.2 µM | 14.4 µM | 22.2 µM | 2.24 µM | 3.06 µM | 12.5 µM | 3.83 µM | 22.8 µM | 18.4 µM |  | 
O=C(Nc1ccc(Cl)cc1)c1cc([N+](=O)[O-])ccc1O | > 100 µM | 24.4 µM |  | 28.6 µM |  | 8.57 µM |  |  | 7.56 µM | > 100 µM | 8.25 µM | > 49.2 µM | > 53.3 µM | > 60.6 µM | > 70.7 µM | 8.17 µM | 7.65 µM | 18.9 µM | 31.6 µM | 
CSc1ccc(NC(=O)C2c3[nH]c4ccccc4c3C3CCC(C(C)(C)C)CC3C2C(=O)O)cc1 (centres undefined) | 32 µM |  |  | > 100 µM | 53 µM | 46.8 µM |  |  |  | 50.1 µM | 66 µM | 80.2 µM | 32.1 µM |  | 31.8 µM | 67.1 µM | 61.6 µM | 44.6 µM | 25.5 µM | 
C[P+](c1ccccc1)(c1ccc(Cl)cc1)c1ccc(Cl)cc1 | > 100 µM |  | 94.6 µM | > 100 µM | 40.3 µM | 19.6 µM | 82 µM | > 100 µM | 10.5 µM | 45.2 µM | 14.4 µM | 59.1 µM | > 100 µM | 36.9 µM | 39.3 µM | 28.3 µM | > 100 µM | 34.4 µM |  | > 100 µM
CC1=NN2C(c3ccc([N+](=O)[O-])cc3)=CSC2=NC(C)(C)C1 | > 100 µM |  |  | > 100 µM | > 100 µM | > 100 µM |  |  | > 100 µM | > 100 µM | > 100 µM | > 100 µM | > 100 µM | > 100 µM | > 100 µM | > 100 µM | > 100 µM | > 100 µM | > 100 µM | 
Cc1c2ccncc2c(C)c2c1[nH]c1ccc(Oc3ccccc3)cc12 | 17.3 µM | > 100 µM |  |  | 13.9 µM | 3.58 µM |  |  | 7.75 µM | 10.5 µM | 9.46 µM | 46.1 µM | > 100 µM | 22.9 µM | 3.37 µM | 3.16 µM | 35.2 µM |  | 12.3 µM | 
C/C(=N\Nc1nc2ccccc2[nH]1)c1cnccn1 |  | 14.9 µM |  | > 100 µM | 2.38 µM | > 25.6 µM | > 57.8 µM | 21.3 µM | > 100 µM | > 100 µM | 13.2 µM | > 100 µM | > 66 µM | > 66.5 µM | > 59.5 µM | > 22.3 µM | > 27.2 µM | 4.66 µM |  | > 66.8 µM
C[C@]12CC[C@H](O)CC1=CC[C@@H]1C2CC[C@]2(C)C(=O)NC(=O)CC12 (some centres undefined) | > 100 µM | > 100 µM |  | > 100 µM | > 100 µM | > 100 µM |  |  | > 100 µM | > 100 µM | > 100 µM | > 100 µM | > 100 µM | > 100 µM | > 100 µM | > 100 µM | > 100 µM | > 100 µM | > 100 µM | 
